Laboratory results published in ChEMBL document CHEMBL1250534, “Gentisides C-K: nine new neuritogenic compounds from the traditional Chinese medicine Gentiana rigescens Franch” (2010).
The source made the active and inactive calls. The rule behind the calls is not given here.

Assays:
PC-12 [1] = assay: Neuritogenic activity in rat PC12 cells assessed as induction of neurite outgrowth at 1 to 30 uM after 48 hrs; assay type: functional
PC-12 [2] = assay: Neuritogenic activity in rat PC12 cells assessed as induction of neurite outgrowth after 48 hrs; assay type: functional, cell-based
PC-12 [3] = assay: Neuritogenic activity in rat PC12 cells assessed as induction of neurite outgrowth at 1 uM after 48 hrs; assay type: functional
PC-12 [4] = assay: Neuritogenic activity in rat PC12 cells assessed as induction of bipolar neurite outgrowth at 1 uM after 48 hrs; assay type: functional, cell-based
PC-12 [5] = assay: Cytotoxicity against rat PC12 cells at 1 uM; assay type: functional, cell-based
PC-12 [6] = assay: Neuritogenic activity in rat PC12 cells assessed as induction of multipolar neurite outgrowth at 1 uM after 48 hrs; assay type: functional, cell-based
PC-12 [7] = assay: Neuritogenic activity in rat PC12 cells assessed as induction of neurite outgrowth at 0.03 uM after 48 hrs; assay type: functional, cell-based
PC-12 [8] = assay: Neuritogenic activity in rat PC12 cells assessed as induction of neurite outgrowth at 30 uM after 48 hrs; assay type: functional

CCCCCCCCCCCCCCCCCCCCCCOC(=O)c1cccc(O)c1O [GENTISIDE J]
Activity (PC-12 [1]): 67%

CC[C@H](C)CCCCCCCCCCCCCCCOC(=O)c1cccc(O)c1O [GENTISIDE F]
Activity (PC-12 [1]): 67%

CCCCCCCCCCCCCCCCCCOC(=O)c1cccc(O)c1O [GENTISIDE E]
Activity (PC-12 [1]): 67%

CC[C@H](C)CCCCCCCCCCCCCCCCCOC(=O)c1cccc(O)c1O [GENTISIDE H]
Activity (PC-12 [1]): 67%

CCCCCCCCCCCCCCCCCCCCCOC(=O)c1cccc(O)c1O [GENTISIDE I]
Activity (PC-12 [1]): 67%

CC[C@H](C)CCCCCCCCCCCCCOC(=O)c1cccc(O)c1O [GENTISIDE C]
Activity (PC-12 [2]): Dose-dependent effect
Activity (PC-12 [3]): 91%
Activity (PC-12 [4]): Active
Activity (PC-12 [5]): inactive
Activity (PC-12 [6]): Active
Activity (PC-12 [7]): Active
Activity (PC-12 [1]): 67%

CC(C)CCCCCCCCCCCCCCCOC(=O)c1cccc(O)c1O [GENTISIDE D]
Activity (PC-12 [1]): 67%

CC[C@H](C)CCCCCCCCCCCCCCCCOC(=O)c1cccc(O)c1O [GENTISIDE G]
Activity (PC-12 [1]): 67%

CCCCCCCCCCCCCCCCCCCCCCCCOC(=O)c1cccc(O)c1O [GENTISIDE K]
Activity (PC-12 [8]): 48%
